Measured values as given in the supplement of paper PMC8960247.
Where a name gives a salt, the structure may show the parent alone. ± gives the standard error.

Key:
621-103 (TSC2-rescued) = test: relative viability vs DMSO; higher = less cytotoxic; settings: serum: 10% FBS, 72 h
621-102 (TSC2-deficient) = test: as above; settings: serum: 10% FBS, 72 h
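Further: immortalized renal angiomyolipoma cells stably carrying empty vector or TSC2, dosed in 384-well plates in DMEM, viability normalized to vehicle-treated wells within each plate.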

SMILES | relative viability (621-103 (TSC2-rescued); 0.0001 µM) [%] | relative viability (621-103 (TSC2-rescued); 0.001 µM) [%] | relative viability (621-103 (TSC2-rescued); 0.01 µM) [%] | relative viability (621-103 (TSC2-rescued); 0.1 µM) [%] | relative viability (621-103 (TSC2-rescued); 1 µM) [%] | relative viability (621-103 (TSC2-rescued); 10 µM) [%] | relative viability (621-102 (TSC2-deficient); 0.0001 µM) [%] | relative viability (621-102 (TSC2-deficient); 0.001 µM) [%] | relative viability (621-102 (TSC2-deficient); 0.01 µM) [%] | relative viability (621-102 (TSC2-deficient); 0.1 µM) [%] | relative viability (621-102 (TSC2-deficient); 1 µM) [%] | relative viability (621-102 (TSC2-deficient); 10 µM) [%]
CNC(=O)Nc1ccc(-c2nc(N3CC4CCC(C3)O4)c3cnn(C4CCC5(CC4)OCCO5)c3n2)cc1 | 108 ± 6.1 | 95.7 ± 2.1 | 73.8 ± 4.8 | 44.1 ± 1.1 | 34.1 ± 0.59 | 22 ± 0.064 | 97.36 ± 0.31 | 93.4 ± 2.7 | 76.3 ± 3.4 | 37.41 ± 0.17 | 25.6 ± 0.73 | 9.06 ± 0.58
CNC(C)C1CCC(N)C(OC2C(N)CC(N)C(OC3OCC(C)(O)C(NC)C3O)C2O)O1 (centres undefined) [Gentamycin sulfate (Gentacycol)] | 99.8 ± 1.9 | 89.3 ± 9.2 | 89.5 ± 1.6 | 94.13 ± 0.19 | 88.3 ± 7.1 | 96.9 ± 3.5 | 104 ± 4.4 | 109 ± 2.3 | 113 ± 2.6 | 109 ± 4.9 | 106.5 ± 0.17 | 91.9 ± 1.7
Cn1cc(C2=C(c3cn(C4CCN(Cc5ccccn5)CC4)c4ccccc34)C(=O)NC2=O)c2ccccc21 [Enzastaurin] | 104.1 ± 0.6 | 99.64 ± 0.22 | 102 ± 1.3 | 99.2 ± 0.55 | 102.1 ± 0.61 | 95.6 ± 1.9 | 110 ± 3 | 114 ± 1.6 | 107 ± 1.7 | 104 ± 2.2 | 106 ± 4.1 | 98.6 ± 6.9
C[C@]12C=CC(=O)N[C@@H]1CC[C@@H]1[C@@H]2CC[C@]2(C)[C@@H](C(=O)Nc3cc(C(F)(F)F)ccc3C(F)(F)F)CC[C@@H]12 [Dutasteride (Avodart)] | 104 ± 1.4 | 105 ± 2.2 | 100.7 ± 0.37 | 101 ± 1.4 | 101 ± 1.5 | 94.61 ± 0.46 | 118 ± 1.5 | 116 ± 1.9 | 115 ± 2.4 | 96.4 ± 1.7 | 107.7 ± 0.56 | 98.5 ± 2.3
CNC(=C[N+](=O)[O-])NCCSCc1ccc(CN(C)C)o1 [Ranitidine HCl] | 107 ± 3.1 | 106 ± 3.6 | 103.5 ± 0.96 | 106 ± 1.3 | 103 ± 3 | 100.1 ± 0.51 | 103 ± 8.4 | 104 ± 0.46 | 101 ± 2.8 | 97.8 ± 2.7 | 105 ± 2.8 | 97.6 ± 0.51
CCN1CCN(C(=O)Cc2ccc(Nc3ncc(F)c(Nc4ccc(C(=O)Nc5ccccc5Cl)cc4)n3)cc2)CC1 [Aurora A Inhibitor I] | 101 ± 0.28 | 100.7 ± 0.54 | 98.55 ± 0.77 | 99.54 ± 0.75 | 87.1 ± 2.3 | 0.915 ± 0.027 | 105.83 ± 0.089 | 113 ± 3.6 | 114 ± 3.2 | 105 ± 2.2 | 104 ± 1.4 | 0.786 ± 0.16
CCOC(=O)[C@H](CCc1ccccc1)N[C@H]1CCc2ccccc2N(CC(=O)O)C1=O [Benazepril HCl] | 82.5 ± 11 | 89.7 ± 11 | 89.6 ± 6.1 | 98.8 ± 6.3 | 95.2 ± 4.9 | 89.9 ± 6.7 | 68 ± 2.9 | 82 ± 2.6 | 83 ± 5.2 | 81.1 ± 7.4 | 74.6 ± 9.9 | 69.8 ± 4.9
